Data set [1] in a line: reversed-phase LC retention time (C18, 15 min MeOH gradient); higher = more hydrophobic / later elution.
A short description of data set [2]: collision cross section (TIMS, N2 drift gas) of the primary ion; higher = larger gas-phase ion size.
[3] abbreviates: ionization mode: ESI+, ion species: [M+H]+.
[4] abbreviates: ionization mode: ESI-, ion species: [M-H]-.

SMILES strings stand for the structures.

Consider `CCCCC(=O)O[C@]1(C(=O)CO)[C@@H](C)C[C@H]2[C@@H]3CCC4=CC(=O)C=C[C@]4(C)[C@@]3(F)[C@@H](O)C[C@@]21C` [Betamethasone-17-valerate], for which the “reversed-phase LC retention time” value was 15.5 min in data set [1] (setting [3]) and 16 min in data set [1] (setting [4]). Also, the collision cross section in data set [2] (setting [3]) was determined as 216.68 Å²; in data set [2] (setting [4]), 216.5 Å².
As to `CC(C)(Oc1ccc(CCNC(=O)c2ccc(Cl)cc2)cc1)C(=O)O` [Bezafibrate], the “reversed-phase LC retention time” value in data set [1] (setting [3]) was 14 min; in data set [1] (setting [4]) it was 12.3 min. The results for the collision cross section in data set [2] (setting [3]) and in data set [2] (setting [4]) were 179.03 Å² and 181.16 Å², respectively.
Consider `CC(O)(CS(=O)(=O)c1ccc(F)cc1)C(=O)Nc1ccc(C#N)c(C(F)(F)F)c1` (stereo unspecified) [Bicalutamide], for which the “reversed-phase LC retention time” value in data set [1] (setting [3]) stood at 13.4 min; in data set [1] (setting [4]), 13.7 min. Further, the collision cross section in data set [2] (setting [3]) came out at 205.43 Å²; in data set [2] (setting [4]), 184.69 Å².
Regarding `O=C(O)c1cc(Oc2ccc(Cl)cc2Cl)ccc1[N+](=O)[O-]` [Bifenox free acid], in data set [1] (setting [4]), the “reversed-phase LC retention time” value turned out to be 13.1 min. In data set [2] (setting [4]), this molecule yielded a collision cross section of 177.92 Å².
For `COc1ccc(-c2coc3cc(O)cc(O)c3c2=O)cc1` [Biochanin A], the “reversed-phase LC retention time” value in data set [1] (setting [4]) was 12.9 min. The molecule further gave a collision cross section in data set [2] (setting [4]) of 166.25 Å².
As for `CC1(C)CC(OC(=O)CCCCCCCCC(=O)OC2CC(C)(C)NC(C)(C)C2)CC(C)(C)N1` [Bis(2,2,6,6-tetramethyl-4-piperidyl)sebacate], in data set [1] (setting [3]), the “reversed-phase LC retention time” value amounted to 11.8 min. In data set [2] (setting [3]), the collision cross section worked out at 225.08 Å².
With `CCCCC(CC)COP(=O)(O)OCC(CC)CCCC` (stereo unspecified) [Bis(2-ethylhexyl)phosphate], the “reversed-phase LC retention time” value in data set [1] (setting [3]) came out at 19.8 min; in data set [1] (setting [4]) it was 17.1 min. Besides, the values for the collision cross section in data set [2] (setting [3]) and in data set [2] (setting [4]) were 223.46 Å² and 188.09 Å², respectively.
`CCCCC(CC)COC(=O)c1ccccc1C(=O)OCC(CC)CCCC` (stereo unspecified) [Bis(2-ethylhexyl)phthalate]: the “reversed-phase LC retention time” value in data set [1] (setting [3]) stood at 19.1 min. Further, the collision cross section in data set [2] (setting [3]) is 212.9 Å².
On to `CC(C)NCC(O)COc1ccc(COCCOC(C)C)cc1` (stereo unspecified) [Bisoprolol], for which the “reversed-phase LC retention time” value in data set [1] (setting [3]) worked out at 11 min. This molecule also came in with a collision cross section in data set [2] (setting [3]) of 191.63 Å².
Consider `CC(C)(c1ccc(OCC(O)CCl)cc1)c1ccc(OCC(O)CCl)cc1` (stereo unspecified) [Bisphenol A bis(3-chloro-2-hydroxypropyl) ether], for which the “reversed-phase LC retention time” value in data set [1] (setting [3]) was 14.2 min. The molecule also had a collision cross section in data set [2] (setting [3]) of 194.74 Å².
As to `Oc1ccc(C(c2ccc(O)cc2)(C(F)(F)F)C(F)(F)F)cc1` [Bisphenol AF], the “reversed-phase LC retention time” value in data set [1] (setting [4]) is 14.8 min. In addition, the collision cross section in data set [2] (setting [4]) stood at 165.55 Å².
Take `CC(C)(c1ccc(O)cc1)c1ccc(O)cc1` [Bisphenol A]: in data set [1] (setting [4]), the “reversed-phase LC retention time” value was found to be 13.4 min. For the same molecule, the collision cross section in data set [2] (setting [4]) is 161.33 Å².
The matching figures for `Oc1ccc(C(c2ccccc2)(c2ccccc2)c2ccc(O)cc2)cc1` [Bisphenol BP]: 16 min and 196.58 Å².
On to `CCC(C)(c1ccc(O)cc1)c1ccc(O)cc1` [Bisphenol B], for which the “reversed-phase LC retention time” value in data set [1] (setting [4]) was 14.3 min. In addition, in data set [2] (setting [4]), the collision cross section was 165.01 Å².
As for `Oc1ccc(C(=C(Cl)Cl)c2ccc(O)cc2)cc1` [Bisphenol C], the “reversed-phase LC retention time” value in data set [1] (setting [4]) stood at 14.5 min. This molecule returned a collision cross section in data set [2] (setting [4]) of 164.81 Å².
`CC(c1ccc(O)cc1)c1ccc(O)cc1` [Bisphenol E]: the “reversed-phase LC retention time” value in data set [1] (setting [4]) is 12.7 min. This molecule also yielded a collision cross section in data set [2] (setting [4]) of 156.4 Å².
For `Oc1ccc(Cc2ccc(O)cc2)cc1` [Bisphenol F] the same measures were 11.9 min and 152.1 Å².
With `CC(C)c1cc(C(C)(C)c2ccc(O)c(C(C)C)c2)ccc1O` [Bisphenol G], in data set [1] (setting [4]), the “reversed-phase LC retention time” value worked out at 16.8 min. The molecule also yielded a collision cross section in data set [2] (setting [4]) of 187.67 Å².
In the case of `CC(C)(c1ccc(O)c(-c2ccccc2)c1)c1ccc(O)c(-c2ccccc2)c1` [Bisphenol PH], the “reversed-phase LC retention time” value in data set [1] (setting [4]) was 17.2 min. The collision cross section in data set [2] (setting [4]) amounted to 204.63 Å².
Take `O=S(=O)(c1ccc(O)cc1)c1ccc(O)cc1` [Bisphenol S]: the “reversed-phase LC retention time” value was 9.38 min in data set [1] (setting [3]) and 7.15 min in data set [1] (setting [4]). Moreover, the collision cross section in data set [2] (setting [3]) turned out to be 155.2 Å²; in data set [2] (setting [4]) it was 154.29 Å².
As to `Oc1ccc(C2(c3ccc(O)cc3)CCCCC2)cc1` [Bisphenol Z], in data set [1] (setting [4]), the “reversed-phase LC retention time” value was found to be 15.3 min. Moreover, in data set [2] (setting [4]), the collision cross section stood at 173.12 Å².
Take `CC(C)(C)C(O)C(Oc1ccc(-c2ccccc2)cc1)n1cncn1` (stereo unspecified) [Bitertanol]: in data set [1] (setting [3]), the “reversed-phase LC retention time” value was determined as 15.9 min. In addition, the collision cross section in data set [2] (setting [3]) was 192.15 Å².
As for `O=C(Nc1ccccc1-c1ccc(Cl)cc1)c1cccnc1Cl` [Boscalid], in data set [1] (setting [3]), the “reversed-phase LC retention time” value stood at 14.2 min. For the same molecule, the collision cross section in data set [2] (setting [3]) is reported as 177.19 Å².
`COc1ccccc1Oc1c(NS(=O)(=O)c2ccc(C(C)(C)C)cc2)nc(-c2ncccn2)nc1OCCO` [Bosentan]: in data set [1] (setting [3]), the “reversed-phase LC retention time” value was found to be 14.8 min. In data set [2] (setting [3]), this molecule displayed a collision cross section of 231.31 Å².
For `CCC(C)n1c(=O)[nH]c(C)c(Br)c1=O` (stereo unspecified) [Bromacil] the same measures were 11.4 min and 144.76 Å².
As for `Oc1c(Br)cc(Cl)cc1Cc1cc(Cl)cc(Br)c1O` [Bromochlorophen], the “reversed-phase LC retention time” value in data set [1] (setting [4]) is 16.3 min. In data set [2] (setting [4]), this molecule registered a collision cross section of 171.71 Å².
`CCCCc1c(C)nc(NCC)nc1OS(=O)(=O)N(C)C` [Bupirimate]: in data set [1] (setting [3]), the “reversed-phase LC retention time” value worked out at 14.7 min. Moreover, in data set [2] (setting [3]), the collision cross section was determined as 176.08 Å².
For `CC(NC(C)(C)C)C(=O)c1cccc(Cl)c1` (stereo unspecified) [Bupropion], the “reversed-phase LC retention time” value in data set [1] (setting [3]) stood at 10.3 min. The molecule further returned a collision cross section in data set [2] (setting [3]) of 158.6 Å².
Turning to `Oc1ccc2c(c1)C13CCCCC1(O)C(C2)N(CC1CCC1)CC3` (stereo unspecified) [Butorphanol], the “reversed-phase LC retention time” value in data set [1] (setting [4]) amounted to 16.6 min. Also, the collision cross section in data set [2] (setting [4]) turned out to be 188.37 Å².
As to `CCCCOC(=O)c1ccc(O)cc1` [Butyl 4-hydroxybenzoate], the “reversed-phase LC retention time” value in data set [1] (setting [4]) came to 14.2 min. The collision cross section in data set [2] (setting [4]) was 147.76 Å².
As to `Cn1c(=O)c2c(ncn2C)n(C)c1=O` [Caffeine], in data set [1] (setting [3]), the “reversed-phase LC retention time” value was found to be 7.7 min. Further, the collision cross section in data set [2] (setting [3]) turned out to be 139.07 Å².
Take `CCOc1nc2cccc(C(=O)O)c2n1Cc1ccc(-c2ccccc2-c2nnn[nH]2)cc1` [Candesartan]: the “reversed-phase LC retention time” value in data set [1] (setting [3]) is 13.3 min; in data set [1] (setting [4]), 9.52 min. For the same molecule, the collision cross section turned out to be 196.78 Å² in data set [2] (setting [3]) and 202.36 Å² in data set [2] (setting [4]).
As for `CC12CCC(=O)C=C1C=CC1[C@@H]2CCC2(C)[C@H]1CCC21CCC(=O)O1` (stereo partly specified) [Canrenone], in data set [1] (setting [3]), the “reversed-phase LC retention time” value is 14.2 min. Besides, the collision cross section in data set [2] (setting [3]) is 186.86 Å².
`NC(=O)N1c2ccccc2C=Cc2ccccc21` [Carbamazepine]: the “reversed-phase LC retention time” value in data set [1] (setting [3]) amounted to 12.3 min. Also, in data set [2] (setting [3]), the collision cross section was determined as 150.05 Å².
With `COC(=O)Nc1nc2ccccc2[nH]1` [Carbendazim], the “reversed-phase LC retention time” value in data set [1] (setting [3]) turned out to be 7.33 min. In data set [2] (setting [3]), this molecule registered a collision cross section of 137.16 Å².
Turning to `CCNC(=O)[C@@H](C)OC(=O)Nc1ccccc1` [Carbetamide], the “reversed-phase LC retention time” value in data set [1] (setting [3]) came out at 11 min. The collision cross section in data set [2] (setting [3]) was determined as 155.79 Å².
For `CNC(=O)Oc1cccc2c1OC(C)(C)C2` [Carbofuran] the same measures were 11.7 min and 147.19 Å².
For `c1ccc2c(c1)[nH]c1ncccc12` [Carboline], the “reversed-phase LC retention time” value in data set [1] (setting [3]) is 11.7 min; in data set [1] (setting [4]), 12.9 min. Further, the collision cross section in data set [2] (setting [3]) was found to be 132.73 Å²; in data set [2] (setting [4]), 129.53 Å².
As for `Nc1nc(=O)c2ncn(COCC(=O)O)c2[nH]1` [Carboxy-aciclovir], in data set [1] (setting [3]), the “reversed-phase LC retention time” value was 2.54 min. This molecule also came in with a collision cross section in data set [2] (setting [3]) of 150.15 Å².
Regarding `Cc1ccc(-c2cc(C(F)(F)F)nn2-c2ccc(S(N)(=O)=O)cc2)cc1` [Celecoxib], the “reversed-phase LC retention time” value in data set [1] (setting [3]) worked out at 15.1 min; in data set [1] (setting [4]), 15.5 min. Further, the collision cross section is recorded as 189.33 Å² in data set [2] (setting [3]) and 191.15 Å² in data set [2] (setting [4]).

These data come from the supplement of paper PMC12613149.
